From patent US6566081B1, “Methods of identifying a compound which modulates the non-transcriptional non-map-kinase induced effects of steroid hormones” (The Brigham and Women's Hospital, Inc., priority 1999, dated 2003)
Entries after “also recorded” stand apart in the source; their conditions may differ. Numbered stars: 1 amine (or outer) side, 2 acyl side, 3 side chain; on linkers, the order of the positions; unused ones are H or OH. Bridge positions count the residues as written; N and C are the ends. Square brackets hold non-standard residues; d marks the D form. Peptide text beside a SMILES is read from it. I, II: the chains in the order shown. Actinocin(9to1) = Cc1c2oc3c(C)ccc(C(=O)[*:1])c3nc-2c(C(=O)[*:2])c(N)c1=O; NMeV = CN[C@H](C(=O)O)C(C)C; Sar = CNCC(=O)O

Tests used:
eNOS = eNOS activity assay (conversion of [3H]-arginine to [3H]-citrulline) in treated human endothelial cells; format: cell-based; settings: for effect on E2-stimulated eNOS activity, later phase (≥15 min) or 30 min / effect on E2-stimulated eNOS activity, initial phase (first 5-10 min): E2 10 nM, wortmannin 30 nM, genistein 50 μM, PD98059 5 μM; for effect on E2-stimulated eNOS activity, later phase (≥15 min) or 30 min: ICI 10 μM, actinomycin D 2 h pretreatment
Protocol: Fetal bovine serum was deprived of estrogen by charcoal-stripping. Once grown to confluence the cells were replated on 1.5% gelatin-coated flasks at 20000 cells/cm^2. […] Cell number was assessed by direct cell counting of adherent cells, after trypsin detachment, in a Neubauer hemocytometer (VWR Scientifics). The percentage of cells excluding Trypan Blue after staining with the compound was taken as a measure of cell viability.
Endothelial cells were grown to confluence on 55 cm^2 culture dishes, treated according to the indicated conditions, and harvested in ice-cold PBS containing 1 mM EDTA. The cell lysates were pelleted in a microfuge (2 minutes, 13000 rpm, 4° C.) and subsequently homogenized in a buffer containing 25 mM Tris-HCl, pH 7.4, 1 mM EDTA, 1 mM EGTA. eNOS activity was determined by measuring the conversion of [^3H]-arginine to [^3H]-citrulline. Rat cerebellum extracts, containing elevated amounts of neuronal NOS, were used as positive controls, while endothelial cell extracts incubated in the presence of the competitive eNOS inhibitor L-NAME (1 mM) served as negative controls.
Human and bovine aortic endothelial cells were harvested enzymatically with Type IA collagenase (1 mg/mL).

Akt/PKB [1] = test: Immunoblotting of Akt phosphorylation (Thr 308, Ser 473); format: cell-based, human; settings: E2/αE2 10 nM, insulin 100 nM, 20 min
Protocol: After the different treatments, serum-starved endothelial cells were rinsed once with ice-cold PBS before addition of the lysis buffer (100 mM Tris-HCl, pH 6.8, 4% SDS, 20% glycerol, 1 mM sodium orthovanadate, 1 mM NaF, and 1 mM phenylmethylsulfonylfluoride) to the dishes on an ice tray. The cell lysates were scraped, boiled, and centrifuged for 2 min at 13000 rpm. Total cell lysates (40 μg of protein) and low range molecular weight markers (BIO-RAD, Hercules, Calif.) were separated by SDS-polyacrylamide gel electrophoresis (12% running, 4% stacking), electrophoretically transferred to polyvinylidene fluoride membranes (Immobilon P, 0.45 μm pore size) and incubated overnight at 4° C. with blocking solution (5% skim milk in TBS—0.1% Tween 20). Affinity-purified rabbit antibodies (0.4 μg of IgG/ml) vs. Akt, (Ser 473) phospho-Akt or (Thr 308) phospho-Akt (New England BioLabs, Beverly, Mass.), Erk1/2, (Tyr 204) phospho-Erk-1/-2 (Calbiochem, San Diego, Calif.) were incubated with the membranes overnight at 4° C. in TBS—0.1% Tween 20 containing 5% BSA. The blots were washed three times with TBS—0.1% Tween 20 and then treated with donkey anti-rabbit antibody (1:4000 dilution) coupled to horseradish peroxidase. Immunodetection was accomplished using the enhanced chemoluminescence kit (ECL Kit, Amersham Corp.).

Akt/PKB [2] = test: Akt kinase assay (immunoprecipitated Akt, GSK-3 peptide); format: cell-based, human; settings: E2/αE2 10 nM, insulin 100 nM, 20 min
Protocol: Immunoprecipitated Akt kinase activity was assayed on endothelial cell lysates by using the Aktl/PKBα immunoprecipitation kinase assay kit (Upstate Biotechnology, Lake Placid, N.Y.). Endothelial cells were starved in phenol red-free199 medium with 0.4% estrogen-deprived FBS, treated, washed, and then harvested in ice-cold Buffer A (50 mM Tris-HCl, pH 7.5, 1 mM EDTA, 1 mM EGTA, […] Na3VO4, 0.1% (v/v) 2-mercaptoethanol, 1% Triton X-100, 50 mM sodium fluoride, 5 mM sodium pyrophosphate, 10 mM sodium glycerophosphate, 0.1 mM PMSF, 1 μg/mL of aprotinin, pepstatin, leupeptin and 1 μM microcystin). The cleared cell lysates were incubated for 1 hour at 4° C. with 4 μg/tube of anit-Akt1/PKBα PH domain immunoaffinity purified sheep IgG, after which 50 μL of a 1:1 (v/v) protein G-agarose slurry was added for an additional hour of incubation at 4° C. After centrifugation, the immunoprecipitates were washed three times with Buffer A containing 0.5 M NaCl, then two times with Buffer B (50 mM Tris-HCl, pH 7.5, 0.03% (w/v) Brij-35, 0.1 mM EGTA, 0.1% (v/v) 2-mercaptoethanol), and finally twice with 1×Assay Buffer (20 mM MOPS, pH 7.2, 25 mM β-glycerol phosphate, 5 mM EGTA, 1 mM Na3VO4, 1 mM DTT).
The immunoprecipitates were resuspended in 10 μL of ice-cold 1×Assay Buffer, and were sequentially added: 10 μL of 40 μM PKA inhibitor peptide ([…]-NH2—corresponding to residues 7-23 of human PKA inhibitor), 10 μL of Akt/PKB specific substrate peptide (100 μM) (RPRAATF—corresponding to the phosphorylation site of glycogen synthase kinase-3, specifically targeted by Akt/PKB, but not by other protein kinases such as Rsk-2 and p70 S6 kinase), and 10 μL of [γ-^32P]ATP stock solution (1×Assay Buffer with 500 μM ATP, 75 mM MgCl2, containing 1 μCi/μL [γ^32-P]ATP, 3000 Ci/mmol). The reaction was incubated at 37° C. for 30 minutes, after which 40 μL of the supernatant was mixed with 20 μL of 40% TCA and incubated for 5 minutes at room temperature. 40 μL of each final fraction were spotted onto the center of a 2 cm×2 cm P81 phosphocellulose paper. The assay squares were washed three times with 0.75% phosphoric acid for five minutes at room temperature, then once with acetone. The squares were then transferred to vials containing a liquid scintillation cocktail and read in a scintillation counter. Blank reaction for the detection of the unspecific background were performed by substituting the cell lysate with Buffer A at the beginning of the procedure, and aspecific endogenous phosphorylation of proteins in the sample extract was estimated by substituting in some samples 1×Assay Buffer for the Akt/PKB specific substrate peptide.

NO release = test: Nitrite assay (NO accumulation from endothelial cells); format: cell-based, human; settings: 30 min; E2/αE2 10 nM, insulin 100 nM, acetylcholine
Protocol: NO accumulation from serum-starved endothelial cells was determined by a modified nitrite assay using 2, 3 diaminonaphtalene as described previously.^33 Fluorescence of 1-(H)-naphtotriazole was measured with excitation and emission wavelengths of 365 and 450 nm, respectively. Standard curves were constructed with known amounts of sodium nitrite. Nonspecific fluorescence was determined in the presence of LNMA (3 mM).

PI3-kinase = PI3-kinase assay on p85 immunoprecipitates of endothelial cell lysates; format: cell-based, human; settings: for stimulation of PI3-kinase activity: 20 min, E2/αE2 10 nM, insulin 100 nM
Protocol: PI3kinase activity in endothelial cell lysates was assayed using the borate thin layer chromatography method, as described.^34 Following a 6 h incubation in serum- and estrogen-deficient medium 199, endothelial cells were treated according to the indicated conditions, washed, and harvested in ice-cold lysis buffer (137 mM NaCl, 20 mM Tris-HCl, pH 7.4, 1 mM CaCl2, 1 mM Mg Cl2, 0.1 mM Na3VO4, 1% NP-40). After pelleting the cell debris, the supernatant was incubated for 1 hour at 4° C. with 5 μL of a rabbit antiserum directed against the p85 regulatory subunit of the PI3-kinase (Upstate Biotechnology, Lake Placid, N.Y.), and immunoprecipitated with the addition of 50 μL of a 1:1 slurry of protein A-agarose for 1 hour at 4° C. Following centrifugation, the immunoprecipitates were washed three times with lysis buffer, three times with 0.1 M Tris-HCl, pH 7.4, 5 mM LiCl, 0.1 mM Na3VO4, followed by two washes with 10 mM Tris-HCl, pH 7.4, 150 mM NaCl, 5 mM EDTA, 0.1 mM Na3VO4.
The immunoprecipitates were then mixed with 50 μL Tris-HCl, pH 7.4, 150 mM NaCl, 5 mM EDTA, 20 μg of phosphatidylinositol (Sigma, Saint Louis, Mo.), 10 μL 100 mM MgCl2 and 5 μL of a 0.88 mM ATP, 20 mM MgCl2 solution, containing 30 μCi of [γ-^32P]ATP (3000 Ci/mmol; NEN Life Science Products, Boston, Mass.). […] The phospholipids were extracted with 160 μL of chloroform/methanol (1:1, v/v). 50 μL of the organic phase, containing the labeled PI3-kinase products were separated by borate thin layer chromatography on glass-backed Silica Gel 60 plates (EM Separations, Gibbstown, N.J.) pretreated with a solution containing 25 mM trans-1,2-diaminocyclohexane-N,N,N′N′-tetraacetic acid (CDTA, Sigma, Saint Louis, Mo.), 66% (v/v) ethanol and 0.06 N NaOH, dried for 1 hour and then baked at 100° C. for 15 minutes. The chromatography was developed with a solution containing 37.5% (v/v) methanol, 30% (v/v) chloroform, 22.5% (v/v) pyridine (Sigma, Saint Louis, Mo.), 1.33% (v/v) formic acid, […] boric acid and 8.5 mM butylated hydroxytoluene (Sigma, Saint Louis, Mo.), briefly dried and exposed to autoradiography.

ER-α / PI3-kinase p85α = target: T1, ER-α / PI3-kinase p85α (Homo sapiens, UniProt P03372); test: ER-α immunoprecipitation: co-precipitated p85α and associated PI3-kinase activity; format: cell-based; settings: ICI 10 μM, wortmannin, tamoxifen 1 μM, PD 98059 5 μM, actinomycin D 5 μM
T1 construct: endogenous in cells; host or cells: human endothelial cells (HSVEC), anti-ERα immunoprecipitate
T1 sequence (P03372 1-595): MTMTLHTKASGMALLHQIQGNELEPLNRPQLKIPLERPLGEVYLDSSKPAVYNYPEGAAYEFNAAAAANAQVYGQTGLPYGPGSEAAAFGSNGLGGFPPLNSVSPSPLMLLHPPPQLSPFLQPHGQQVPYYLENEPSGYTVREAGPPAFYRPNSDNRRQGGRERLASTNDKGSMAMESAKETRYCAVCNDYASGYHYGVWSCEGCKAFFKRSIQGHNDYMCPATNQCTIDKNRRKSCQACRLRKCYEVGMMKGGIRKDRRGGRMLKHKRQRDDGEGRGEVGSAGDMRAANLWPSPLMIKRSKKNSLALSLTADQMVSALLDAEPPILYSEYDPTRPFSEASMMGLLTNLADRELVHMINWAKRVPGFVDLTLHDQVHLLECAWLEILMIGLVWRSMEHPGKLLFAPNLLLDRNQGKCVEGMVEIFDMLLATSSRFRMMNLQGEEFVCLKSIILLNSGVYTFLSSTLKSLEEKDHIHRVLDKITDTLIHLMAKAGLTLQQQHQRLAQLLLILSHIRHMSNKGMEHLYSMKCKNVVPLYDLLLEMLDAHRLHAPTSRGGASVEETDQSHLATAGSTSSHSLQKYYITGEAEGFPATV

| stimulation of Akt kinase activity (words) (Akt/PKB [2]) | stimulation of Akt kinase activity (words) (Akt/PKB [2]; listed as 17a-estradiol) | SMILES | stimulation of eNOS activity by the substance alone (eNOS; E2/αE2 10 nM, insulin 100 nM, 30 min) | Akt Ser 473 phosphorylation (Akt/PKB [1]) | Akt threonine (Thr 308) phosphorylation (Akt/PKB [1]) | stimulation of NO release / production (nitrite accumulation) (NO release) | stimulation of PI3-kinase activity (PI3-kinase) | stimulation of PI3-kinase activity (PI3-kinase; listed as αE2) | effect on E2-stimulated eNOS activity, later phase (≥15 min) or 30 min (eNOS) | effect on insulin-induced eNOS activity (eNOS; insulin 100 nM, 30 min) | effect on basal eNOS activity, substance alone (eNOS; no E2) | effect on E2-stimulated ER-α-associated PI3-kinase activity (ER-α / PI3-kinase p85α) | effect on E2-stimulated eNOS activity, later phase (≥15 min) or 30 min (eNOS; listed as Genistein) | effect on E2-stimulated eNOS activity, initial phase (first 5-10 min) (eNOS) | effect on E2-stimulated eNOS activity, initial phase (first 5-10 min) (eNOS; listed as Genistein) | effect on E2-induced PI3-kinase activation (PI3-kinase; E2 10 nM 20 min, ICI 10 μM, wortmannin 30 nM) |
| --- | --- | --- | --- | --- | --- | --- | --- | --- | --- | --- | --- | --- | --- | --- | --- | --- |
| ineffective | small increase | C[C@]12CC[C@@H]3c4ccc(O)cc4CC[C@H]3[C@@H]1CC[C@H]2O [17α-estradiol] | no effect; also recorded: inability | ineffective | ineffective; also recorded: minimal increase | very low effect; also recorded: inability | ineffective; also recorded: inability | lack | – | – | – | – | – | – | – | – |
| – | – | Cc1c2oc3c(C)ccc(C(=O)N[C@@H]4C(=O)N[C@H](C(C)C)C(=O)N5CCC[C@H]5C(=O)N(C)CC(=O)N(C)[C@@H](C(C)C)C(=O)O[C@@H]4C)c3nc-2c(C(=O)N[C@@H]2C(=O)N[C@H](C(C)C)C(=O)N3CCC[C@H]3C(=O)N(C)CC(=O)N(C)[C@@H](C(C)C)C(=O)O[C@@H]2C)c(N)c1=O [actinomycin D] (I: T[dV]P[Sar][NMeV] / II: T[dV]P[Sar][NMeV]; ester I:1-I:C, II:1-II:C; linker I:N-II:N via Actinocin(9to1)) | – | – | – | – | – | – | did not affect; also recorded: no effect | did not affect; also recorded: no inhibitory effect | nor had any effects by itself; also recorded: no effect | not | – | – | – | – |
| – | – | O=c1c(-c2ccc(O)cc2)coc2cc(O)cc(O)c12 [genistein] | – | – | – | – | – | – | only minimally affected; also recorded: not the later phase; also recorded: little or no inhibitory effect | – | – | – | do not block | able to block; also recorded: significantly blocked | blunt | only minimally affected |
